# Results as given in patent US20040229785A1, “Screening methods to identify treatments for autoimmune disease” (priority 2002, published 2004).
# Values joined by “and” are separate entries in the source; they are usually repeats but may differ in a detail not shown here. Equal entries are not always repeated.
# Key:
# [1] = tested on: NOD mouse splenocytes (T cells, non-T cells)
# Method: (§12) Following is an optimized protocol for the automated analysis of cell sensitivity to compounds that induce cell death via apoptosis or necrosis.
# (§13) Place on AutoMACS cell sorter for CD-subset separation (magnetic bead separation method or direct RBC lysis)
# (§14) Pipette 100 μL cell suspension (25,000 cells) into each 96-well plate well, ×3 for triplicates
# (§15) Add 5 μL of reagent (e.g., TNF-α, another induced or cell death, or mixtures containing up to 10 different chemical reagent combinations for the induction of cell death), to each well to be treated, ×3 for triplicates.
# (§16) For flow cytometry (analysis), remove 90 μL of re-suspended sample material from each sample well
# (§17) Add 90 μl of cell stain solution to each sample flow test tube above to stain cells for identification
# (§18) The sensitivity of T cell populations from NOD mice were re-examined using the automated assay described above.
# (§19) Non-T cells from NOD and B6 mice were also examined for sensitivity to TNF-α-induced cell death.
# [2] = tested on: B6 mouse splenocytes (T cells, non-T cells)
# Method: as §12, §13, §14, §15, §16, §17, §18, §19
# [3] = tested on: PBLs from Type I diabetics; test: Trypan Blue uptake by human PBLs incubated with TNF-α; type: cell-based; settings: TNF-α 20 ng/mL, 24 hours, FIG. 14A
# Method: (§1) In an initial set of assays for characterizing the response of PBLs from human diabetics and control subjects to incubation with TNF-α or other candidate compounds in vitro, uptake of the dye Trypan Blue, a relatively nonspecific measure of cell death, was used. […] However, there appeared to be an inverse correlation between the age-at-onset and the extent of the TNF-α induced-increase in Trypan Blue uptake by the PBLs (FIG. 14C).
# [4] = tested on: PBLs from non-diabetic subjects; test: as above; type: cell-based; settings: TNF-α 20 ng/mL, 24 hours, FIG. 14B
# Method: as §1
# [5] = tested on: PBLs from Type I diabetics; test: FACS Annexin V binding/PI uptake in human PBLs cultured with or without TNF-α; type: cell-based; parameters: increase in Annexin V binding to CD3+ PBLs in response to TNF-α: dose or concentration left out as unconfirmed
# Method: Therefore, Annexin V binding/PI uptake measurements were used to measure specific cellular lineages in the human PBLs based on fluorescence activated cell scanning (FACS) analysis. PBLs were stained with anti-CD3, anti-Annexin V, and anti-PI antibodies immediately after isolation. After 12 or 24 hours in culture in the presence or absence of TNF-α, cells were analyzed by FACS for Annexin V/PI binding to defined lineages. Over the course of these studies several important differences emerged in the behavior of human PBLs compared to NOD splenocytes (Table 1). First, human PBL isolates contained a large amount of cell fragments and debris, both at baseline and after culture. This finding was not evident in the NOD splenocyte preparations. Comparing the responses of non-diabetic C57BL/6 murine splenocytes to non-diabetic humans PBLs, the viability of C57BL/6 splenocytes remained constant during a 24 hour period of culture in vitro, whereas a progressive increase in spontaneous cell death of human PBLs was regularly observed over this interval. This differential response of cell viability to culture in vitro may possibly reflect an intrinsic fragility of human PBLs and/or the greater rigors of cell isolation required for purification of human PBLs as compared with murine splenocytes. […] Another difference between PBLs from human Type I diabetics and NOD splenocytes is that the evolution of TNF-α-induced apoptosis in NOD splenocytes occurs with a predictable time course that is much more rapid than that seen in PBLs from Type I diabetics. […] By 24 hours, there was little further increase in the fraction of cells binding Annexin V. However, nuclear binding of PI to NOD splenocytes had increased substantially reflecting a further progression of the apoptotic program. By contrast, cell death in response to TNF-α in human CD3 positive-PBLs, when evident, evolved much more slowly. For example, increased Annexin V binding was rarely seen after 12 hours and at 24 hours, increased Annexin V uptake, when present, was generally not accompanied by increased PI uptake.
# The results generated using CD3, CD19, and CD11b positive PBLs isolated from 33 Type I diabetics and from control subjects (see Table 1) support the following conclusions. […] In these studies, PBLs were processed in parallel from a Type I diabetic and an age/sex matched control non-diabetic subject. Immediately after isolation, the PBLs were incubated with Annexin V and propidium iodide and subjected to FACS analysis (left column of flow charts; “before incubation”). […] The cells were then incubated in the absence (center panels) or presence (right panels) of TNF-α (20 ng/mL). After 12 hours, these cells were stained with Annexin V and PI and analyzed by FACS.
# B6 (C57BL/6) splenocytes = test: Annexin V/PI flow cytometry of cultured splenocytes with and without TNF-α; type: cell-based, mouse
# Method: (§2) Flow cytometry can be performed using a Facscalibur flow cytometer (BD Biosciences, San Jose, Calif.). Samples were incubated for 18-24 hours in the absence or presence of TNF-α (20-50 ng/mL), after which apoptotis can be determined by direct detection using FITC-conjugated annexin V and Propidium Iodide (PI) from R&D Systems (TACS Annexin V-FITC Apoptosis Detection Kit; Minneapolis, Minn.). Early apoptotic cells were defined as positive for annexin V only, whereas late apoptotic cells were defined as being positive for both PI and annexin V.
# (§3) In order to obtain high viability for those assays using splenocytes, gentle treatment throughout the isolation procedure is important. Optimized results were obtained as follows: a mouse is sacrificed by cervical dislocation and the spleen removed via an abdominal incision. The spleen is then gently inflated with several mLs of RPMI/10% FBS using a 22 gauge needle. Any fluid leaking out of the spleen is collected as it contains splenocytes. A small opening is created on one end of the spleen and the splenic tissue expelled through this opening with a “scraping” motion using blunt tipped forceps. The resulting clumps of tissue are homogenized by repeated gentle pipetting. The crude splenocyte preparation is then filtered through a 40 micron mesh filter.
# (§4) The spleen contains a variety of different immune cells. These can be distinguished further into T-cells (mostly CD4 and CD8) and non-T-cells (mostly B-cells and macrophages). Magnetic separation methods were used to sort the splenocytes into T-cell and non-T-cell fractions. For the isolation of T-cells, Miltenyi Biotec's Pan T magnetic bead cocktail were used. This cocktail contains antibodies against CD11b, CD45R, DX5, and Ter-119. As a result, all Non-T cells, i.e. B cells, NK cells, dendritic cells, macrophages, granulocytes, and erythroid cells; are depleted from the sample, leaving only T-cells. For the isolation of non-T-cells, a mixture of magnetic beads directed against CD90 and Ter-119 were used. This depletes all T-cells and erythroid cells, leaving only the non-T cells.
# (§5) The difference in sensitivity between B6 and NOD splenocytes to TNF-α was then examined. B6 and NOD splenocytes were plated out in U-bottom shaped 96 well plates at a density of 25,000 cells per well in 100 μL of medium, with and without 50 ng/mL TNF-α added. The cells were cultured for 24 hrs, stained with Annexin V and PI, and analyzed by flow cytometry (FIG. 10).
# (§6) After culture at 37° C. for 26 hours, the cell death of NOD vs. B6 T cells and NOD vs. B6 non T cells was quantified by AnnexinV and PI (FIG. 11). Late death is shown for cells obtained from a single NOD and a single B6 mouse.
# (§7) Samples obtained from a single NOD and a single B6 mouse were also examined for cell death by PI staining alone (FIG. 12) after culturing at 32° C. for 18 hours.
# (§8) Therefore, Annexin V binding/PI uptake measurements were used to measure specific cellular lineages in the human PBLs based on fluorescence activated cell scanning (FACS) analysis. PBLs were stained with anti-CD3, anti-Annexin V, and anti-PI antibodies immediately after isolation. After 12 or 24 hours in culture in the presence or absence of TNF-α, cells were analyzed by FACS for Annexin V/PI binding to defined lineages. Over the course of these studies several important differences emerged in the behavior of human PBLs compared to NOD splenocytes (Table 1). First, human PBL isolates contained a large amount of cell fragments and debris, both at baseline and after culture. This finding was not evident in the NOD splenocyte preparations. Comparing the responses of non-diabetic C57BL/6 murine splenocytes to non-diabetic humans PBLs, the viability of C57BL/6 splenocytes remained constant during a 24 hour period of culture in vitro, whereas a progressive increase in spontaneous cell death of human PBLs was regularly observed over this interval. […]
# NOD splenocytes = test: as above; type: cell-based, mouse; settings: for TNF sensitivity of T cell subpopulation: FIG. 13
# Method: as §2, §3, §4, §5, §6, §7, §8
# [6] = tested on: CD3+ T cells from a non-diabetic control subject; type: cell-based, human
# Text: (§9) II. Remove red blood cells and collect lymphocyte subsets:
# (§10) 11. Acquire timed and/or absolute count/volume data
# (§11) The automated method described herein has also been used for the assay of cell viability in a human patient. Blood samples were obtained from a patient with Type I diabetes and from a non-diabetic control subject. During the assay procedure, a CD3^+ T cell subset was isolated from each (Step 11.12 from the protocol). The cells were then contacted with TNF-α and cell viability was measured and compared to that found in control samples which were not contacted with TNF-α.
# [7] = tested on: CD3+ T cells from a patient with Type I diabetes; type: cell-based, human
# Text: as §9, §10, §11
# [8] = tested on: PBLs from non-diabetic control subjects; test: FACS Annexin V binding/PI uptake in human PBLs cultured with or without TNF-α; type: cell-based
# Method: as §8
# The results generated using CD3, CD19, and CD11b positive PBLs isolated from 33 Type I diabetics and from control subjects (see Table 1) support the following conclusions. […] After 12 hours, these cells were stained with Annexin V and PI and analyzed by FACS.
substance,measurement,setting,value
TNF-α,change in splenocyte viability on TNF-α treatment (decrease),"[1]; NOD diabetic mice, n=17, T cell populations, FIG. 16",−2.7+/−0.9
same,"viability change of non-T cells, TNF-α treated vs untreated","[1]; NOD mice non-T cells, n=12, FIG. 18B",4.6%
same,viability of splenocytes treated with TNF-α,[2],69.7%
same,"viability change of non-T cells, TNF-α treated vs untreated","[2]; B6 mice non-T cells, n=12, FIG. 18B",5.0%
same,change in splenocyte viability on TNF-α treatment (increase),"[2]; control B6 mice, n=17, T cell populations, FIG. 16",1.0+/−0.5
same,extent of Trypan Blue uptake,[3],further increasing Trypan Blue uptake
same,extent of Trypan Blue uptake,[4],did not significantly alter
same,staining by Annexin V+PI+,"[5]; PBLs from a diabetic patient vs matched control, TNF-α 20 ng/mL, 12 hours, FIGS. 15A, 15B",increased significantly and selectively
same,Annexin V staining after culture in the presence of TNF-α,"[5]; PBLs of two Type I diabetic subjects (FIGS. 15A, 15B), TNF-α 20 ng/mL, 12 hours, without TNF-α 6.5% and 6.2%",11.3% and 13.4%
same,increase in Annexin V binding to CD3+ PBLs in response to TNF-α,"[5]; Type I diabetic vs non-diabetic PBLs, 24 hours, TNF-α",greater to a statistically significant extent
same,After culture with THF-α (Mean % cell death ± SE),"[5]; human IDDM patients, overnight early T-cell death, n=33 pairs",8.73 ± 0.96%
same,cell death of T cells by PI staining alone on exposure to TNF-α,"B6 (C57BL/6) splenocytes; B6 T cells, 32° C., 18 hours, single mouse, FIG. 12",do not exhibit TNF induced death
same,late cell death of T cells by AnnexinV and PI on exposure to TNF-α,"B6 (C57BL/6) splenocytes; B6 T cells, 37° C., 26 hours, single mouse, FIG. 11",increased viability
same,After culture with THF-α (Mean % cell death ± SE),"B6 (C57BL/6) splenocytes; C57BL/6 mouse, overnight early T-cell death, n=7 pairs",10.2 ± 2.5%
same,TNF sensitivity of T cell subpopulation,NOD splenocytes; NOD CD4+ T cells,not TNF sensitive
same,TNF sensitivity of T cell subpopulation,NOD splenocytes; NOD CD8+ T cells,greatest TNF sensitivity
same,cell death of T cells by PI staining alone on exposure to TNF-α,"NOD splenocytes; NOD T cells, 32° C., 18 hours, single mouse, FIG. 12",death of a subpopulation of T cells
same,late cell death of T cells by AnnexinV and PI on exposure to TNF-α,"NOD splenocytes; NOD T cells, 37° C., 26 hours, single mouse, FIG. 11",further accelerated
same,After culture with THF-α (Mean % cell death ± SE),"NOD splenocytes; NOD mouse, overnight early T-cell death, n=5 pairs",32.9 ± 3.97%
same,Annexin V binding,"NOD splenocytes; NOD splenocytes, 12-hour incubation with TNF-α",clear increase in Annexin V binding
same,"sensitivity of splenocytes to TNF-α (viability, Annexin V/PI)","NOD splenocytes; NOD vs B6 control splenocytes, 50 ng/mL TNF-α, 24 hrs, 25,000 cells per well, FIG. 10",much more sensitive
same,Viability (%),[6],96%
same,Death (%),"[6]; Control subject, CD3+ cells, TNF-α +, without TNF-α 5",4%
same,Total Cell Count,"[6]; Control subject, CD3+ cells, TNF-α +, without TNF-α 2000",2200
same,Viability (%),[7],93%
same,Death (%),"[7]; Type I diabetic, CD3+ cells, TNF-α +, without TNF-α 5",7%
same,Total Cell Count,"[7]; Type I diabetic, CD3+ cells, TNF-α +, without TNF-α 1900",1900
same,Annexin V staining after culture in the presence of TNF-α,"[8]; PBLs of two parallel non-diabetic control subjects, TNF-α 20 ng/mL, 12 hours, without TNF-α 5.0 and 9.0%",5.5% and 7.5%
same,After culture with THF-α (Mean % cell death ± SE),"[8]; human random controls, overnight early T-cell death, n printed 3",8.02 ± 0.85%
